Measured values published in patent publication US4383113A, “Agricultural sulfonamides” (E. I. Du Pont de Nemours and Company, priority 1981, dated 1983).

Assays:
cocklebur = experiment: Test A pre-emergence; assay type: in vivo, Xanthium spp.; design: key: 0 = no effect, 10 = maximum effect; letter = response symbol; settings: 0.4 kg/ha
Method in brief: (§1)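 Seeds and tubers were treated preemergence in a growth medium with compound in a nonphytotoxic solvent, against untreated controls; emerged plants such as two-leaf barnyardgrass and five-leaf cotton were sprayed postemergence, against solvent-sprayed controls. After sixteen days in a greenhouse, response was rated visually from 0 to 10.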

cassia = experiment: Test A pre-emergence; assay type: in vivo, Cassia tora; design: key: 0 = no effect, 10 = maximum effect; letter = response symbol; settings: 0.4 kg/ha
Method in brief: as §1

nutsedge = experiment: Test A pre-emergence; assay type: in vivo, Cyperus rotundus; settings: 0.4 kg/ha
From the text: The activity of these compounds was discovered in a number of greenhouse and field tests. The ratings are based on a numerical scale extending from 0=no effect, to 10=maximum effect. The accompanying descriptive symbols have the following meanings:
Seeds of crabgrass (Digitaria spp.), barnyardgrass (Echinochloa crusgalli), wild oats (Avena fatua), cassia (Cassia tora), morningglory (Ipomoea spp.), cocklebur (Xanthium spp.), sorghum, corn, soybean, rice, wheat and nutsedge tubers (Cyperus rotundus) were planted in a growth medium and treated preemergence with a nonphytotoxic solvent solution of the compounds of Table XII. Other batches of seeds and tubers for all of the foregoing weed and crop plants were planted at the same time as controls. The control plantings were untreated; i.e., neither any compound nor any solvent was applied. At the same time, cotton having five leaves (including cotyledonary ones), bush beans with the third trifoliate leaf expanding, crabgrass with two leaves, barnyardgrass with two leaves, wild oats with two leaves, cassia with three leaves (including cotyledonary ones), morningglory with four leaves (including the cotyledonary ones), cocklebur with four leaves (including the cotyledonary ones), sorghum with four leaves, corn with four leaves, soybean with two cotyledonary leaves, rice with three leaves, wheat with one leaf, and nutsedge with three-five leaves were sprayed with a nonphytotoxic solvent solution of the compounds of Table XII. Other groups of all the same weed and crop plants were sprayed with the same nonphytotoxic solvent so as to provide control plants. Preemergence and postemergence treated plants and controls were maintained in a greenhouse for sixteen days, then all treated plants were compared with their respective controls and rated visually for response to treatment.

crabgrass = experiment: Test A pre-emergence; assay type: in vivo, Digitaria spp.; design: key: 0 = no effect, 10 = maximum effect; letter = response symbol; settings: 0.4 kg/ha
Method in brief: as §1

barnyardgrass = experiment: Test A pre-emergence; assay type: in vivo, Echinochloa crusgalli; design: key: 0 = no effect, 10 = maximum effect; letter = response symbol; settings: 0.4 kg/ha
Method in brief: as §1

wild oats = experiment: Test A pre-emergence; assay type: in vivo, Avena fatua; design: key: 0 = no effect, 10 = maximum effect; letter = response symbol; settings: 0.4 kg/ha
Method in brief: as §1

rice = experiment: Test A pre-emergence; assay type: in vivo; design: key: 0 = no effect, 10 = maximum effect; letter = response symbol; settings: 0.4 kg/ha
Method in brief: as §1

soybean = experiment: Test A pre-emergence; assay type: in vivo; design: key: 0 = no effect, 10 = maximum effect; letter = response symbol; settings: 0.4 kg/ha
Method in brief: as §1

wheat = experiment: Test A pre-emergence; assay type: in vivo; design: key: 0 = no effect, 10 = maximum effect; letter = response symbol; settings: 0.4 kg/ha
Method in brief: as §1

purple nutsedge [1] = experiment: Test F soil surface spray; assay type: in vivo, Cyperus rotundus
From the text: (§2) Purple nutsedge tubers (Cyperus rotundus) were planted about 2 cm deep in Fallsington silt loam contained in plastic pots 10 cm in diameter. Five tubers were put in each pot. Compounds of this invention were sprayed dissolved in a non-phytotoxic solvent at a volume rate of 560 l/ha. in four different methods of treatment, i.e., soil surface spray, tuber/soil spray, soil incorporated and post-emergence. For the soil surface spray, the compounds were sprayed on the firmed soil surface immediately after planting. For the tuber/soil spray, the compounds were sprayed on the exposed tubers and subtending soil before the untreated covering soil was added. Soil incorporation treatments were mixed in the covering soil. Post-emergence treatments were sprayed on the nutsedge foliage and surrounding soil surface after the nutsedge had emerged and had reached the height of about 12 cm.
(§3) Immediately after spraying the surface spray, tuber/soil spray and soil incorporated treatments were misted with about 0.3 cm of water over a 90 minute period and then placed in the greenhouse. Post-emergence treatments were placed directly into the greenhouse and watered carefully so that treatments would not be washed from the foliage.

purple nutsedge [2] = experiment: Test F tuber/soil spray; assay type: in vivo, Cyperus rotundus
From the text: as §2, §3

purple nutsedge [3] = experiment: Test F soil incorporated; assay type: in vivo, Cyperus rotundus
From the text: as §2, §3

purple nutsedge [4] = experiment: Test F post-emergence; assay type: in vivo, Cyperus rotundus
From the text: as §2, §3

morningglory = experiment: Test A pre-emergence; assay type: in vivo, Ipomoea spp.; design: key: 0 = no effect, 10 = maximum effect; letter = response symbol; settings: 0.4 kg/ha
Method in brief: as §1

sorghum = experiment: Test A pre-emergence; assay type: in vivo; design: key: 0 = no effect, 10 = maximum effect; letter = response symbol; settings: 0.4 kg/ha
Method in brief: as §1

corn = experiment: Test A pre-emergence; assay type: in vivo; design: key: 0 = no effect, 10 = maximum effect; letter = response symbol; settings: 0.4 kg/ha
Method in brief: as §1

Compound	response rating (cocklebur)	response rating (cassia)	response rating (nutsedge)	response rating (crabgrass)	response rating (barnyardgrass)	response rating (wild oats)	response rating (rice)	response rating (soybean)	response rating (wheat)	response rating (morningglory)	response rating (sorghum)	further results
COc1nc(C)nc(NC(=O)NS(=O)(=O)c2ccccc2C(=O)OC2CCCCCCC2)n1 [drawing 523]	9G	8G	7G	5G	9H	7G	9H	9H	5G			
COC(=O)c1cc(Cl)ccc1S(=O)(=O)NC(=O)Nc1nc(C)cc(OC)n1 [drawing 604]												response rating after 4 weeks (purple nutsedge [1]; .032 kg/ha): 9G; response rating after 4 weeks (purple nutsedge [2]; .008 kg/ha): 7G; response rating after 4 weeks (purple nutsedge [3]; .008 kg/ha): 7G; response rating after 4 weeks (purple nutsedge [4]; .032 kg/ha): 9C; response rating after 4 weeks (purple nutsedge [4]; .125 kg/ha): 9C
COc1nc(NC(=O)NS(=O)(=O)c2ccccc2C(=O)OC2CCCCC2)nc(OC)n1 [drawing 499]	9C	2C	0	0	9H	2G	5G	2C	2G	9G	8G	
COC(=O)c1ccccc1S(=O)(=O)NC(=O)Nc1ncccn1 [drawing 596]												response rating after 4 weeks (purple nutsedge [1]; .032 kg/ha): 0; response rating after 4 weeks (purple nutsedge [2]; .032 kg/ha): 2G; response rating after 4 weeks (purple nutsedge [3]; .032 kg/ha): 0; response rating after 4 weeks (purple nutsedge [4]; .032 kg/ha): 0; response rating after 4 weeks (purple nutsedge [4]; .125 kg/ha): 9C
COc1nc(C)nc(NC(=O)NS(=O)(=O)c2ccccc2C(=O)OCCCl)n1 [drawing 493]	9G		9G			8H	9H	9H		9C		
CCCC(OC(=O)c1ccccc1S(=O)(=O)NC(=O)Nc1nc(C)nc(OC)n1)C(C)C (centres unmarked) [drawing 525]	8G	8G	5G	0	9H	5G	9H	9H	3G	9G		response rating (corn): 8G
CCCCCCCCCCOC(=O)c1ccccc1S(=O)(=O)NC(=O)Nc1nc(C)nc(OC)n1 [drawing 497]			2G	2G	0	0	0	0	0	0	3G	response rating (corn): 4G
CCCCCCCCCCOC(=O)c1ccccc1S(=O)(=O)NC(=O)Nc1nc(OC)cc(OC)n1 [drawing 494]	9G	5G	5G	0		6G	8G	3G	2G	5G	8G	
COC(=O)c1cc(Cl)ccc1S(=O)(=O)NC(=O)Nc1nc(OC)nc(OC)n1 [drawing 603]												response rating after 4 weeks (purple nutsedge [1]; .008 kg/ha): 3G; response rating after 4 weeks (purple nutsedge [1]; .032 kg/ha): 7G; response rating after 4 weeks (purple nutsedge [1]; .125 kg/ha): 9G; response rating after 4 weeks (purple nutsedge [2]; .008 kg/ha): 4G; response rating after 4 weeks (purple nutsedge [2]; .032 kg/ha): 7G; response rating after 4 weeks (purple nutsedge [2]; .125 kg/ha): 9G; response rating after 4 weeks (purple nutsedge [3]; .008 kg/ha): 5G; response rating after 4 weeks (purple nutsedge [3]; .032 kg/ha): 7G; response rating after 4 weeks (purple nutsedge [3]; .125 kg/ha): 9G; response rating after 4 weeks (purple nutsedge [4]; .008 kg/ha): 3G; response rating after 4 weeks (purple nutsedge [4]; .125 kg/ha): 10C
COc1nc(NC(=O)NS(=O)(=O)c2ccccc2C(=O)OC(C)C)nc(OC)n1 [drawing 600]												response rating after 4 weeks (purple nutsedge [1]; .004 kg/ha): 8G; response rating after 4 weeks (purple nutsedge [1]; .008 kg/ha): 8G; response rating after 4 weeks (purple nutsedge [2]; .004 kg/ha): 7G; response rating after 4 weeks (purple nutsedge [2]; .008 kg/ha): 8G; response rating after 4 weeks (purple nutsedge [3]; .004 kg/ha): 8G; response rating after 4 weeks (purple nutsedge [3]; .008 kg/ha): 8G; response rating after 4 weeks (purple nutsedge [4]; .004 kg/ha): 8C; response rating after 4 weeks (purple nutsedge [4]; .008 kg/ha): 9C; response rating after 4 weeks (purple nutsedge [4]; .016 kg/ha): 9C; response rating after 4 weeks (purple nutsedge [4]; .032 kg/ha): 10C
CCCCCCCCCCOC(=O)c1ccccc1S(=O)(=O)NC(=O)Nc1nc(OC)nc(OC)n1 [drawing 496]			0	0	0	0	0	1C	0	4G	2H	response rating (corn): 2G
COc1nc(C)nc(NC(=O)NS(=O)(=O)c2ccccc2C(=O)OC2CCCC2)n1 [drawing 512]	9G	8G	9G	6G	9H	4G	9H	9H	4G	9G		
COC(=O)c1ccccc1S(=O)(=O)NC(=O)N(C)c1nc(C)cc(C)n1 [drawing 486]		0	0	3G	2G	0	8H	0	4H	0	4G	response rating (corn): 3G
CCCCCCCCCCOC(=O)c1ccccc1S(=O)(=O)NC(=O)Nc1nc(C)cc(OC)n1 [drawing 495]	9G	7G	7G	0			9H		8G	8G		
COC(=O)c1ccccc1S(=O)(=O)NC(=O)Nc1nc(OC)nc(OC)n1 [drawing 483]	9G	9G	9G	9H	9H	9G		9H	9G	9G	9G	response rating (corn): 9G
COc1cc(OC)nc(NC(=O)NS(=O)(=O)c2ccccc2C(=O)OC2CCCCC2)n1 [drawing 498]	8G	3G	5G	0	9H	5G	9H		3G	8G	8G	
COc1nc(C)nc(NC(=O)NS(=O)(=O)c2ccccc2C(=O)OCc2ccc(Cl)cc2)n1 [drawing 527]	8G	8G	9G			4G	9H	7H	0	9G		
COC(=O)c1ccccc1S(=O)(=O)NC(=O)Nc1nnc(C)c(C)n1 [drawing 597]												response rating after 4 weeks (purple nutsedge [1]; .032 kg/ha): 2G; response rating after 4 weeks (purple nutsedge [2]; .032 kg/ha): 2G; response rating after 4 weeks (purple nutsedge [3]; .032 kg/ha): 3G; response rating after 4 weeks (purple nutsedge [4]; .032 kg/ha): 0; response rating after 4 weeks (purple nutsedge [4]; .125 kg/ha): 9C; response rating after 4 weeks (purple nutsedge [4]; .5 kg/ha): 10C
